Measured values reported in patent US8889682B2, “Inhibitors of bruton'S tyrosine kinase” (Hoffmann-La Roche Inc., priority 2011, dated 2014).

tested on: B cell receptor-mediated activation of B cells in human blood (CD69 expression); test: Inhibition of B cell activation in whole blood measured by CD69 expression; assay type: cell-based; settings: anti-IgM stimulation, 20 hours, CD69-positive cells that are also CD20-positive, read-out: HWB IC50
Procedure: Inhibition of B Cell Activation in Whole Blood Measured by CD69 Expression
A procedure to test the ability of Btk inhibitors to suppress B cell receptor-mediated activation of B cells in human blood is as follows:
Human whole blood (HWB) is obtained from healthy volunteers, with the following restrictions: 24 hr drug-free, non-smokers. Blood is collected by venipuncture into Vacutainer tubes anticoagulated with sodium heparin. Test compounds are diluted to ten times the desired starting drug concentration in PBS […], followed by three-fold serial dilutions in 10% DMSO in PBS to produce a nine point dose-response curve. […] HWB (100 μl) is added to each well, and after mixing the plates are incubated at 37 C, 5% CO2, 100% humidity for 30 minutes.
Included are induced control, unstained and single stains for compensation adjustments and initial voltage settings. […] Supernatants are removed via suction and the remaining pellets are lysed again with another 1 ml of 1× Pharmingen Lyse Buffer, and plates are spun down as before. Supernatants are aspirated and remaining pellets are washed in FACs buffer (PBS+1% FBS). […] Samples are transferred to a 96 well plate suitable to be run on the HTS 96 well system on the BD LSR II flow cytometer.
Using appropriate excitation and emission wavelengths for the fluorophores used, data are acquired and percent positive cell values are obtained using Cell Quest Software. Results are initially analyzed by FACS analysis software (Flow Jo).

| Compound | IC50 [nM] |
| --- | --- |
| CN1CCC(c2ccc(Nc3cc(-c4ccnc(-n5ncc6cc(C(C)(C)C)cc(F)c6c5=O)c4CO)nn(C)c3=O)nc2)CC1 [Compound I-1, 6-tert-Butyl-8-fluoro-2-{3-hydroxymethyl-4-[1-methyl-5-(1′-methyl-1′,2′,3′,4′,5′,6′-hexahydro-[3,4′]bipyridinyl-6-ylamino)-6-oxo-1,6-dihydro-pyridazin-3-yl]-pyridin-2-yl}-2H-phthalazin-1-one] | 11 |
| Cn1nc(-c2ccnc(-n3ccc4cc(C(C)(C)C#N)cc(F)c4c3=O)c2CO)cc(Nc2ccc(OC(C)(C)CN3CC(F)(F)C3)cn2)c1=O [Compound I-32, 2-{2-[4-(5-{5-[2-(3,3-Difluoro-azetidin-1-yl)-1,1-dimethyl-ethoxy]-pyridin-2-ylamino}-1-methyl-6-oxo-1,6-dihydro-pyridazin-3-yl)-3-hydroxymethyl-pyridin-2-yl]-8-fluoro-1-oxo-1,2-dihydro-isoquinolin-6-yl}-2-methyl-propionitrile] | 106 |
| Cn1nc(-c2ccnc(-n3ccc4cc(C(C)(C)C)cc(F)c4c3=O)c2CO)cc(Nc2ccc(OC(C)(C)CN3CC(F)(F)C3)cn2)c1=O [Compound I-27, 6-tert-Butyl-2-[4-(5-{5-[2-(3,3-difluoro-azetidin-1-yl)-1,1-dimethyl-ethoxy]-pyridin-2-ylamino}-1-methyl-6-oxo-1,6-dihydro-pyridazin-3-yl)-3-hydroxymethyl-pyridin-2-yl]-8-fluoro-2H-isoquinolin-1-one] | 62 |
| CN1CCn2nc(Nc3cc(-c4ccnc(-n5ccc6cc(C(C)(C)C#N)cc(F)c6c5=O)c4CO)nn(C)c3=O)cc2C1 [Compound I-31, 2-(8-Fluoro-2-{3-hydroxymethyl-4-[1-methyl-5-(5-methyl-4,5,6,7-tetrahydro-pyrazolo[1,5-a]pyrazin-2-ylamino)-6-oxo-1,6-dihydro-pyridazin-3-yl]-pyridin-2-yl}-1-oxo-1,2-dihydro-isoquinolin-6-yl)-2-methyl-propionitrile] | 36 |
| Cn1cc(-c2nccc(-n3ncc4cc(C(C)(C)C)cc(F)c4c3=O)c2CO)cc(Nc2ccc(S(C)(=O)=O)cn2)c1=O [Compound I-29, 4-(6-tert-Butyl-8-fluoro-1-oxo-1H-phthalazin-2-yl)-3-hydroxymethyl-5′-(5-methanesulfonyl-pyridin-2-ylamino)-1′-methyl-1′H-[2,3′]bipyridinyl-6′-one] | 162 |
| CN(C)C(=O)c1ccc(Nc2cc(-c3ccnc(-n4ncc5cc(C(C)(C)C)cc(F)c5c4=O)c3CO)nn(C)c2=O)nc1 [Compound I-5, 6-{6-[2-(6-tert-Butyl-8-fluoro-1-oxo-1H-phthalazin-2-yl)-3-hydroxymethyl-pyridin-4-yl]-2-methyl-3-oxo-2,3-dihydro-pyridazin-4-ylamino}-N,N-dimethyl-nicotinamide] | 30 |
| CCN1CCn2nc(Nc3cc(-c4ccnc(-n5ccc6cc(C(C)(C)C)cc(F)c6c5=O)c4CO)nn(C)c3=O)cc2C1 [Compound I-25, 6-tert-Butyl-2-{4-[5-(5-ethyl-4,5,6,7-tetrahydro-pyrazolo[1,5-a]pyrazin-2-ylamino)-1-methyl-6-oxo-1,6-dihydro-pyridazin-3-yl]-3-hydroxymethyl-pyridin-2-yl}-8-fluoro-2H-isoquinolin-1-one] | 3 |
| Cn1cc(-c2ccnc(-n3ncc4cc(C(C)(C)C)cc(F)c4c3=O)c2CO)cc(Nc2ccc(C(=O)N3CCOCC3)cn2)c1=O [Compound I-8, 2′-(6-tert-Butyl-8-fluoro-1-oxo-1H-phthalazin-2-yl)-3′-hydroxymethyl-1-methyl-5-[5-(morpholine-4-carbonyl)-pyridin-2-ylamino]-1H-[3,4′]bipyridinyl-6-one] | 27 |
| CN1CCn2nc(Nc3cc(-c4ccnc(-n5ccc6cc(C7CC7)cc(F)c6c5=O)c4CO)nn(C)c3=O)cc2C1 [Compound I-20, 6-Cyclopropyl-8-fluoro-2-{3-hydroxymethyl-4-[1-methyl-5-(5-methyl-4,5,6,7-tetrahydro-pyrazolo[1,5-a]pyrazin-2-ylamino)-6-oxo-1,6-dihydro-pyridazin-3-yl]-pyridin-2-yl}-2H-isoquinolin-1-one] | 74 |
| CN1CCC[C@H]1c1ccc(Nc2cc(-c3ccnc(-n4ncc5cc(C(C)(C)C)ccc5c4=O)c3CO)nn(C)c2=O)nc1 [Compound I-12, 6-tert-Butyl-2-(3-hydroxymethyl-4-{1-methyl-5-[5-((S)-1-methyl-pyrrolidin-2-yl)-pyridin-2-ylamino]-6-oxo-1,6-dihydro-pyridazin-3-yl}-pyridin-2-yl)-2H-phthalazin-1-one] | 28 |
| CN1CCC[C@H]1c1ccc(Nc2cc(-c3ccnc(-n4ncc5cc(C(C)(C)C)cc(F)c5c4=O)c3CO)nn(C)c2=O)nc1 [Compound I-2, 6-tert-Butyl-8-fluoro-2-(3-hydroxymethyl-4-{1-methyl-5-[5-((S)-1-methyl-pyrrolidin-2-yl)-pyridin-2-ylamino]-6-oxo-1,6-dihydro-pyridazin-3-yl}-pyridin-2-yl)-2H-phthalazin-1-one] | 5 |
| Cn1nc(-c2ccnc(-n3ncc4cc(C(C)(C)C)cc(F)c4c3=O)c2CO)cc(Nc2ccc(OC(C)(C)CN3CCC3)cn2)c1=O [Compound I-15, 2-(4-{5-[5-(2-Azetidin-1-yl-1,1-dimethyl-ethoxy)-pyridin-2-ylamino]-1-methyl-6-oxo-1,6-dihydro-pyridazin-3-yl}-3-hydroxymethyl-pyridin-2-yl)-6-tert-butyl-8-fluoro-2H-phthalazin-1-one] | 3 |
| Cn1nc(-c2ccnc(-n3ncc4cc(C(C)(C)C)cc(F)c4c3=O)c2CO)cc(Nc2ccc(OC(C)(C)CN3CC(F)(F)C3)cn2)c1=O [Compound I-30, 6-tert-Butyl-2-[4-(5-{5-[2-(3,3-difluoro-azetidin-1-yl)-1,1-dimethyl-ethoxy]-pyridin-2-ylamino}-1-methyl-6-oxo-1,6-dihydro-pyridazin-3-yl)-3-hydroxymethyl-pyridin-2-yl]-8-fluoro-2H-phthalazin-1-one] | 55 |
| CN1CCC(c2ccc(Nc3cc(-c4ccnc(-n5ncc6cc(C(C)(C)C)ccc6c5=O)c4CO)nn(C)c3=O)nc2)CC1 [Compound I-13, 6-tert-Butyl-2-{3-hydroxymethyl-4-[1-methyl-5-(1′-methyl-1′,2′,3′,4′,5′,6′-hexahydro-[3,4′]bipyridinyl-6-ylamino)-6-oxo-1,6-dihydro-pyridazin-3-yl]-pyridin-2-yl}-2H-phthalazin-1-one] | 47 |
| Cn1nc(-c2ccnc(-n3ncc4cc(C(C)(C)C)cc(F)c4c3=O)c2CO)cc(Nc2cc3n(n2)CCN(C2COC2)C3)c1=O [Compound I-21, 6-tert-Butyl-8-fluoro-2-{3-hydroxymethyl-4-[1-methyl-5-(5-oxetan-3-yl-4,5,6,7-tetrahydro-pyrazolo[1,5-a]pyrazin-2-ylamino)-6-oxo-1,6-dihydro-pyridazin-3-yl]-pyridin-2-yl}-2H-phthalazin-1-one] | 18 |
| CN(C)C(=O)c1ccc(Nc2cc(-c3ccnc(-n4ccc5cc(C6CC6)cc(F)c5c4=O)c3CO)nn(C)c2=O)nc1 [Compound I-6, 6-{6-[2-(6-Cyclopropyl-8-fluoro-1-oxo-1H-isoquinolin-2-yl)-3-hydroxymethyl-pyridin-4-yl]-2-methyl-3-oxo-2,3-dihydro-pyridazin-4-ylamino}-N,N-dimethyl-nicotinamide] | 77 |
| CN1CCn2nc(Nc3cc(-c4ccnc(-n5ncc6cc(C(C)(C)C)ccc6c5=O)c4CO)nn(C)c3=O)cc2C1 [Compound I-19, 6-tert-Butyl-2-{3-hydroxymethyl-4-[1-methyl-5-(5-methyl-4,5,6,7-tetrahydro-pyrazolo[1,5-a]pyrazin-2-ylamino)-6-oxo-1,6-dihydro-pyridazin-3-yl]-pyridin-2-yl}-2H-phthalazin-1-one] | 24 |
| CN1CCn2nc(Nc3cc(-c4ccnc(-n5ccc6cc(C(C)(C)C)cc(F)c6c5=O)c4CO)nn(C)c3=O)cc2C1 [Compound I-23, 6-tert-Butyl-8-fluoro-2-{3-hydroxymethyl-4-[1-methyl-5-(5-methyl-4,5,6,7-tetrahydro-pyrazolo[1,5-a]pyrazin-2-ylamino)-6-oxo-1,6-dihydro-pyridazin-3-yl]-pyridin-2-yl}-2H-isoquinolin-1-one] | 15 |
| CN(C)C(=O)c1ccc(Nc2cc(-c3ccnc(-n4ncc5cc(C(C)(C)C)cc(F)c5c4=O)c3CO)cn(C)c2=O)nc1 [Compound I-10, 6-[2′-(6-tert-Butyl-8-fluoro-1-oxo-1H-phthalazin-2-yl)-3′-hydroxymethyl-1-methyl-6-oxo-1,6-dihydro-[3,4′]bipyridinyl-5-ylamino]-N,N-dimethyl-nicotinamide] | 9 |
| Cn1nc(Nc2cc(-c3ccnc(-n4ncc5cc(C(C)(C)C)cc(F)c5c4=O)c3CO)nn(C)c2=O)cc1CN1CCC1 [Compound I-17, 2-{4-[5-(5-Azetidin-1-ylmethyl-1-methyl-1H-pyrazol-3-ylamino)-1-methyl-6-oxo-1,6-dihydro-pyridazin-3-yl]-3-hydroxymethyl-pyridin-2-yl}-6-tert-butyl-8-fluoro-2H-phthalazin-1-one] | 30 |
| Cn1nc(-c2ccnc(-n3ncc4cc(C(C)(C)C)cc(F)c4c3=O)c2CO)cc(Nc2ccc(C(=O)N3CCOCC3)cn2)c1=O [Compound I-3, 6-tert-Butyl-8-fluoro-2-(3-hydroxymethyl-4-{1-methyl-5-[5-(morpholine-4-carbonyl)-pyridin-2-ylamino]-6-oxo-1,6-dihydro-pyridazin-3-yl}-pyridin-2-yl)-2H-phthalazin-1-one] | 14 |
